For this assay, the target named is T1, fused G6PD::6PGL protein (Giardia duodenalis, UniProt A8BWM5).
T1 construct: gene GL50803_008682; natural fusion of G6PD and 6PGL domains in one open reading frame; pET-3a/g6pd::6pgl in E. coli BL21(DE3)Δzwf::kan^r; 2',5'-ADP Sepharose and Sephacryl 200; dimer
T1 sequence (A8BWM5 1-742): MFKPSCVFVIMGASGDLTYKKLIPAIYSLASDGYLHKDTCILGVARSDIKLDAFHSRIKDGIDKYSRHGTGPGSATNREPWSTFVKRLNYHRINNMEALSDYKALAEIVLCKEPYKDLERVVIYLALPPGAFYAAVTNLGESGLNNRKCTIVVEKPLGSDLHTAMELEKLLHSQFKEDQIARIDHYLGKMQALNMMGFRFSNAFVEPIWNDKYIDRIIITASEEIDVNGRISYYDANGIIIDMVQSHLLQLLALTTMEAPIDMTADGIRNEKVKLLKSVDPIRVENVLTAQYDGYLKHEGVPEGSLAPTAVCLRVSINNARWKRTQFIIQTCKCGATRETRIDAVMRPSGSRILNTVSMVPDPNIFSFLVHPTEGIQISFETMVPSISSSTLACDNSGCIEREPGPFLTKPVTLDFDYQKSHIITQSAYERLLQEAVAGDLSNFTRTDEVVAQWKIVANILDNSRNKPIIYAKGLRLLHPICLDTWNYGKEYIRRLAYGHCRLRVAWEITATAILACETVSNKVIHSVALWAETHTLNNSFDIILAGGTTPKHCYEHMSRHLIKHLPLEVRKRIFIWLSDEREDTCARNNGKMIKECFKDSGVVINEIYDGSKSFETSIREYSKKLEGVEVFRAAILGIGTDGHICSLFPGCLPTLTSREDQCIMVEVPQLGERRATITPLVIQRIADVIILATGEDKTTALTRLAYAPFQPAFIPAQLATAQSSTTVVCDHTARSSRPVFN
The experiment in a line: intrinsic tryptophan fluorescence quenching titration. The class given is binding.

The structures appear in SMILES notation.

Compound `NC(=O)c1ccc[n+]([C@@H]2O[C@H](COP(=O)(O)OP(=O)(O)OC[C@H]3O[C@@H](n4cnc5c(N)ncnc54)[C@H](OP(=O)(O)O)[C@@H]3O)[C@@H](O)[C@H]2O)c1` [NADP^+] gave a Kd of 0.0632 µM.

A word on the Kd: it is the concentration at which binding is half-saturated.

Source of the values: paper PMC7022596, “Identification of the NADP^+ Structural Binding Site and Coenzyme Effect on the Fused G6PD::6PGL Protein from Giardia lamblia” (Biomolecules, 2019).
